Test results: patent publication US12707888B2, “Asymmetric donor-acceptor molecular dyes” (THE UNIVERSITY OF NORTH CAROLINA AT CHARLOTTE, priority 2019, dated 2026)

Tests used:
[1] = Lippert-Mataga analysis of excited state dipole moments; assay type: physicochemical; conditions: semi-empirically calculated using the Lippert-Mataga equation
Protocol: The calculated HOMOs/LUMOs indicate that the strong solvatofluorochromism arises from an ICT mechanism, whereby the ground state has significant electron localization on the donor side of the molecule whereas the electron density shifts to the acceptor moiety in the excited state. To more directly quantify the strong ICT character of the TTz dyes, the excited-state dipole moments were calculated using the Lippert-Mataga equation (Eq 1):
[formula] where va and vf are the wavenumbers of the absorption and emission peaks in cm^−1, respectively; μ* and μ are the excited state and ground state dipoles, respectively; ϵ0 is the vacuum permittivity, h is Planck's constant, c is the speed of light, a is the Onsager cavity radius, Δf is the orientation polarizability, ϵ is the relative permittivity, and η is the refractive index. The dipoles were calculated using Spartan 2016 software, and the Onsager cavity radii were calculated using Gaussian '09 software.
FIGS. 9A and 9B show the Stokes shift of Bu2N-TTz-Py and Ph2N-TTz-COOH versus Δf, respectively. From the slopes of the Lippert-Mataga plots, the change between the dipole moments of the ground and excited states can be determined. Even though the Lippert-Mataga equation assumes no specific solvent-solute interactions (e.g. hydrogen bonding) and ignores solute polarizability, high degrees of linearity are apparent; and therefore, the estimations of the excited state dipoles are regarded as reliable. […] Perhaps owing to the minimal solvent interactions and rapid vibrational relaxation, the estimated changes in dipole moments (Δμ) are remarkably large (Table IV). […] Therefore, it is expected that these asymmetric TTzs dyes would be well suited to give high sensitivity in sensing applications whereby small changes in the polarity of the environment can lead to large differences in the wavelengths of fluorescence.

[2] = UV-Vis absorbance, fluorescence emission and quantum yield in organic solvents; assay type: physicochemical; conditions: for peak absorbance λmax, abs: in DCM
Protocol: The absorption, emission, and fluorescence lifetime characteristics of all four TTz dyes were recorded in a variety of organic solvents (FIGS. 7A-7B, Table of FIG. 8). Additionally, HOMO/LUMO levels of the TTz dyes were determined computationally in Spartan 16 using B3LYP/6-31g. Molar absorptivities of all the TTz dyes ranged from 13,000 to 86,000 cm^−1M^−1. […] However, the peak absorbance of Bu2N-TTz-Py in DCM was slightly red-shifted as compared to that of Ph2N-TTz-Py (λmax, abs=429 nm vs λmax, abs=422 nm in DCM), which is attributed to the diphenylamine moiety having weaker donor characteristics. […] Due to the low estimated ground state dipole moments of the TTz dyes (μ=6-8 D), their wavelengths of absorbance remained relatively solvent independent (st. dev.=±11 nm).
4-pyridine carboxaldehyde, 4-(dibutylamino)benzaldehyde, 4-(diphenylamino)benzaldehyde, terephthalaldehyde, dithiooxamide, and all solvents used for spectroscopic measurements were purchased from Sigma-Aldrich and used without further purification. ^1H and ^13CNMR measurements were obtained with either a JEOL 300 MHz NMR or a JEOL 500 MHz NMR. High resolution mass spectra were obtained using a Thermo Fisher Scientific MSQ Plus Single Quadrupole Mass Spectrometer. Solution-state UV-Vis spectra were collected on a Cary 300 UV-Vis spectrophotometer. Time-resolved measurements were taken on a Jobin Yvon-Spex Fluorolog equipped with a 389 nm diode laser for time-resolved PL decay measurements. Igor Pro 6.3 software was used to fit PL(t) decay data to single/multiple exponential decays. Quantum yields were calculated using 9,10-diphenylanthracene as a reference (quantum yield [ΦF] in cyclohexane=0.97).^40-41 Density functional theory (DFT) calculations were performed with Spartan computational software using B3LYP^42-43 density functional and 6-31G*^44 basis set. Temperature studies were conducted using a 10 μM Bu2N-TTz-Py MeTHF solution placed inside of a Norrell 502 NMR tube and sequentially submerged in the following liquid N2 baths:octanol (−16° C.), acetonitrile (−41° C.), acetone (−94° C.), pentane (−131° C.), MeTHF (−136° C.), and liquid N2 itself (−196° C.). The phosphorescence spectrum of Bu2N-TTz-Py (see S2) was collected similarly at −196° C. by pumping with 389 nm light while inside a liquid nitrogen bath and then probing the emission within 2 sec of removing from the bath. Human embryonic kidney cells (HEK 293T) were a kind gift from Prof. Bryan Dickinson, and Mouse macrophage J774A.1 cells were a kind gift from Prof. Deborah Nelson at the University of Chicago. Cells were cultured in Dulbecco's Modified Eagle's Medium (Invitrogen Corporation, USA) containing 10% heat inactivated Fetal Bovine Serum (FBS) (Invitrogen Corporation, USA), 100 U/mL penicillin, and 100 μg/mL streptomycin. Cells were maintained at 37° C. under 5% CO2.

[3] = TCSPC fluorescence lifetime in solvents; assay type: physicochemical
Description: TCSPC measurements of the TTz dyes show a general upward trend for fluorescent lifetimes as the polarity increases in aprotic solvents—from 1.50-1.89 ns in nonpolar solvents to ~3.00 ns in polar, aprotic solvents (Table of FIG. 8). The fluorescence lifetimes in protic solvents have the opposite trend; that is, a decrease in the fluorescence lifetime as the polarity increases (e.g. for Ph2N-TTz-COOH: τf, iPrOH=2.40 ns, τf, MeOH=1.80 ns). The trend reversal in the fluorescence lifetime can most likely be attributed to the presence of hydrogen bonding in protic solvents. […] At the same time, the non-radiative rates of each TTz generally increases as solvent polarity increases. […] Regardless, the fact that the fluorescence lifetimes are solvent dependent opens up the possibility of using these TTz dyes for measuring micelle formation and viscosity in living cells using fluorescence lifetime imaging (FLIM).
4-pyridine carboxaldehyde, 4-(dibutylamino)benzaldehyde, 4-(diphenylamino)benzaldehyde, terephthalaldehyde, dithiooxamide, and all solvents used for spectroscopic measurements were purchased from Sigma-Aldrich and used without further purification. ^1H and ^13CNMR measurements were obtained with either a JEOL 300 MHz NMR or a JEOL 500 MHz NMR. High resolution mass spectra were obtained using a Thermo Fisher Scientific MSQ Plus Single Quadrupole Mass Spectrometer. […]

[4] = in cyclohexane; cited from earlier work

Row | Change in Dipole Δμ [1] | Excited State Dipole μ* [1] | peak absorbance λmax, abs [2] | largest Stokes shift ([2]; largest across solvents) | fluorescence lifetime τf, MeOH ([3]; MeOH) | fluorescence lifetime τf, iPrOH ([3]; iPrOH) | Compound | quantum yield [ΦF] of reference [4]
1 | 14.6 D | 20.8 D | 422 nm | 0.750 eV |  |  | c1ccc(N(c2ccccc2)c2ccc(-c3nc4sc(-c5ccncc5)nc4s3)cc2)cc1 [Ph2N-TTz-Py, 2-(N,N-diphenyl-4-aminophenyl)-5-(4-pyridyl) thiazolo[5,4-d]thiazole] | 
2 | 18.0 D | 24.9 D | 434 nm |  |  |  | O=Cc1ccc(-c2nc3sc(-c4ccc(N(c5ccccc5)c5ccccc5)cc4)nc3s2)cc1 [Ph2N-TTz-CHO, 2-(N,N-diphenyl-4-aminophenyl)-5-(4-formylphenyl) thiazolo[5,4-d]thiazole] | 
3 | 13.0 D | 21.3 D |  |  | 1.80 ns | 2.40 ns | O=C(O)c1ccc(-c2nc3sc(-c4ccc(N(c5ccccc5)c5ccccc5)cc4)nc3s2)cc1 [Ph2N-TTz-COOH, 2-(N,N-diphenyl-4-aminophenyl)-5-(4-carboxyphenyl) thiazolo[5,4-d]thiazole] | 
4 |  |  |  |  |  |  | c1ccc(-c2c3ccccc3c(-c3ccccc3)c3ccccc23)cc1 [9,10-diphenylanthracene] | 0.97
